Results on six molecules are retold here after patent US9676720B2, “Substituted biaryl compound” (UBE INDUSTRIES, LTD., priority 2013, dated 2017).

Read-outs that look alike come from different tables or passages of the source.

The target of test [1] is human EP2 receptor (Homo sapiens (Human), UniProt P43116). Briefly: Measurement of EP2 receptor binding action. Conditions: membrane fraction of HEK293 cells expressing human EP2 receptor; [3H]prostaglandin E2 10 nM. Here is the method: The membrane fraction was recovered on glass fiber filter paper (GF/B, manufactured by Whatman) using a cell harvester (M30R, manufactured by Brandel), and after washing with a buffer solution (10 mM MES-KOH (pH 6.0), 10 mM MgCl2), radioactivity was measured with a liquid scintillation analyzer (2000CA, manufactured by Packard). […] Ki=IC50/(1+([^3H]prostaglandin E2 concentration/Kd))
human EP2 receptor, sequence (P43116 whole entry): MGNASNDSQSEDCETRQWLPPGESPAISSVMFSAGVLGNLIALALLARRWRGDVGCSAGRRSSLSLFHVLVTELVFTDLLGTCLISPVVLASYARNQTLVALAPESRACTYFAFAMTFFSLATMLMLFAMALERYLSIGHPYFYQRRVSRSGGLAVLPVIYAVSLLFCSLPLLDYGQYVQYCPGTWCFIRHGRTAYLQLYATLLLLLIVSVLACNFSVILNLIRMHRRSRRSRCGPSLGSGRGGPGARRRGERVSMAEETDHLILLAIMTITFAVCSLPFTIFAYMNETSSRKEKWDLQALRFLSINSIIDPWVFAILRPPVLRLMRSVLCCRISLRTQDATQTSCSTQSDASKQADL
Note that the dissociation constant (Kd value) was calculated by Scatchard analysis.

The test system of test [2] is Pulmonary fibroblasts derived from a human fetus (IMR90). In words: Test for inhibition of pulmonary fibroblast proliferation (BrdU incorporation). The class given is cell-based. How it is done: Measurement of inhibition effect of pulmonary fibroblast proliferation was performed by modifying the method of Huang et al. (American Journal of Respiratory Cell and Molecular Biology, 39, 482 (2008)). Pulmonary fibroblasts derived from a human fetus (IMR90, purchased from American Type Culture Collection) were cultured in DMEM medium containing 10% FBS and seeded at 1×10^4 cells/well of a 96-well plate. After culturing for approximately 8 hours in a carbon dioxide incubator, the medium was replaced with FBS-free DMEM medium and the culturing was performed for one night. On the following day, the medium was replaced with a new FBS-free DMEM medium, and then a test compound dissolved in dimethyl sulfoxide (final concentration: 0.1%) and FGF (final concentration: 10 ng/mL, manufactured by Wako Pure Chemical Industries, Ltd.) were added thereto and allowed to stand undisturbed in a carbon dioxide incubator. After 22 hours, a BrdU labeling solution (manufactured by Roche) was added and culturing was performed for another 2 hours. After the completion of the culturing, amount of BrdU incorporation was measured using Cell Proliferation ELISA BrdU (colorimetric) (manufactured by Roche). The concentration of the test compound required to inhibit BrdU incorporation to 50% (IC50 value) was calculated by non-linear regression of the test compound concentration and the amount of BrdU incorporation using EXSAS (Ver. 8.0.0, manufactured by Arm Systex).

For test [3], the system named is mouse pulmonary fibrosis models (bleomycin). Briefly: Test for inhibition of pulmonary fibrosis in mouse (bleomycin model, lung hydroxyproline). The class given is in vivo, ICR mice. The conditions noted are these: dose of 0.3 mg/kg, intratracheal administration twice per day for 28 days. How it is done:
Test for inhibition effect of pulmonary fibrosis using mouse was performed by partially modifying the method of Oku et al. (European Journal of Pharmacology, 590, 400 (2008)). […] These models were used as a bleomycin control group and a test compound administration group. Similarly, a normal group was subjected to administration of saline for 5 days. For the test, each group used 7 or more mice. The test compound solution for the administration was prepared by dissolving the test substance to the equimolar amount of 0.1 mol/L aqueous sodium hydroxide solution, and then neutralizing by adding a phosphate buffer solution (PBS) which was a medium. The test compound was administered via intratracheal administration twice per day from the start date of the test, for 28 days. For the normal group and bleomycin control group, the medium was administered similarly via intratracheal administration. For the intratracheal administration, the MicroSprayerTM (IA-1C-M, manufactured by PennCentury) was used. On the day following the completion of 28-day administration, the mice were left bleeding to die while subjecting the mice for inhalation anesthesia, to collect the lungs. […] The amount of hydroxyproline (HYP) in the lung hydrolysis solution, which is an indicator of collagen accumulation, was measured by the method of Woessner et al. (Archives of Biochemistry and Biophysics, 93, 440 (1961)). […] After cooling, 200 μL of the colored solution was placed on a microplate, and the absorbance (measurement wavelength: 570 nm, reference wavelength: 620 nm) was measured using a plate reader (SPECTRA FLOUR, manufactured by Tecan). A HYP solution having a specified concentration was reacted in the same manner to create a calibration curve, and the HYP concentration of each sample was calculated. From the calculated HYP concentration, the amount of HYP in the lung per 100 g of body weight was calculated. The inhibiting rate of HYP formation in the lung upon administration of the test compound was calculated using the formula described below. […]

Setting [4] is: Homo sapiens, IMR-90, IMR90, FGF 10 ng/mL, BrdU incorporation, read-out: IC50 value (nM) of inhibition effect of pulmonary fibroblast proliferation.
Setting [5] is: Homo sapiens, IMR-90, read-out: IC50 value (nM) of inhibition effect of pulmonary fibroblast proliferation.

As to `CCC=Cc1cccc(-c2ccc(CN(Cc3cccc(NCC(=O)O)n3)S(=O)(=O)c3ccccn3)cc2)c1` [Comparative example 9, (6-{[3′-(1-Butenyl)biphenyl-4-ylmethyl](pyridin-2-ylsulfonyl)aminomethyl}-pyridin-2-ylamino)acetic acid], affinity in test [1] was put at a Ki of 1.5 nM. In addition, the IC50 in test [2] (setting [4]) is 0.75 nM.
In turn, `CCOc1cc(-c2ccc(CN(Cc3cccc(NCC(=O)O)n3)S(=O)(=O)c3ccccn3)cc2)ccn1` [Comparative example 15, (6-{[4-(2-Ethoxypyridin-4-yl)benzyl](pyridin-2-ylsulfonyl)aminomethyl}-pyridin-2-ylamino)acetic acid] registered a Ki in test [1] of 3.2 nM. Also, the IC50 in test [2] (setting [4]) was more than 1 nM.
For `CC#Cc1cccc(-c2ccc(CN(Cc3cccc(NCC(=O)O)n3)S(=O)(=O)c3ccccn3)cc2)c1` [Example 4, (6-{[3′-(1-Propynyl)biphenyl-4-ylmethyl](pyridin-2-ylsulfonyl)aminomethyl}-pyridin-2-ylamino)acetic acid], in test [2] (setting [5]), the IC50 was 0.016 nM. The “Inhibiting rate of HYP formation in the lung” value (“Inhibiting rate” below) in test [3] was not below 70%.
Regarding `CCOc1cccc(-c2ccc(CN(Cc3cccc(NCC(=O)O)n3)S(=O)(=O)c3ccccc3)cc2)c1` [Example 10, {6-[(Benzenesulfonyl)(3′-ethoxybiphenyl-4-ylmethyl)aminomethyl]pyridin-2-ylamino}acetic acid], the IC50 in test [2] (setting [5]) turned out to be 0.035 nM. In test [3], the “Inhibiting rate” value is given as not below 70%.
With `CC#Cc1cccc(-c2ccc(CN(Cc3cccc(NCC(=O)O)n3)S(=O)(=O)c3ccccc3)cc2)c1` [Example 16, (6-{(Benzenesulfonyl)[3′-(1-propynyl)biphenyl-4-ylmethyl]aminomethyl}-pyridin-2-ylamino)acetic acid], the IC50 in test [2] (setting [5]) turned out to be 0.0088 nM. Also, in test [3], the “Inhibiting rate” value is not below 70%.
For `CC#Cc1cccc(-c2ccc(CN(Cc3cccc(NCC(=O)O)n3)S(=O)(=O)c3ccsc3)cc2)c1` [Example 18], in test [1], the affinity, expressed as Ki, was 0.99 nM. The IC50 in test [2] (IMR90, FGF 10 ng/mL, BrdU incorporation, read-out: IC50 value (nM) of inhibition effect of pulmonary fibroblast proliferation) came to 0.0042 nM.

One may read the Ki as the dissociation constant of the complex between target and ligand, obtained from inhibition or displacement.
